A short description of data set [1]: aqueous kinetic solubility. To be noted: aqueous kinetic solubility.
For another data set, the target named is recombinant mouse GALK1 (Mus musculus, UniProt Q9R0N0). The data set can be described thus: mGALK1 biochemical activity assay (Kinase-Glo Plus, ATP depletion). The procedure, abridged: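 Recombinant GALK1 (5 nM) with 100 μM galactose; GALK1 turnover read as ATP depletion by Kinase-Glo Plus luminescence. Reaction ran 1 h at room temperature before detection reagent was added.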
Chain of recombinant mouse GALK1 (Q9R0N0 whole entry): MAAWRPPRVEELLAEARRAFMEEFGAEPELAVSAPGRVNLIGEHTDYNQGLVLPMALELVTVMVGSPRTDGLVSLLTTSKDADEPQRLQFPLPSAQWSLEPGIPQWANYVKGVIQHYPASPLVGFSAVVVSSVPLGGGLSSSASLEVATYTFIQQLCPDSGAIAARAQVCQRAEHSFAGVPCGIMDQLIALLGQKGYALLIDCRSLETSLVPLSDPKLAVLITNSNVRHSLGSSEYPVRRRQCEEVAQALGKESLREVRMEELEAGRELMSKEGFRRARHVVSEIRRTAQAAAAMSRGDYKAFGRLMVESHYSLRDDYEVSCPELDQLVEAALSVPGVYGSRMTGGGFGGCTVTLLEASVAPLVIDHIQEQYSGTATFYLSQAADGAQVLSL
(In Kinase-Glo more light means more ATP remaining.)

The next data set addresses recombinant human GALK1 (Homo sapiens, UniProt P51570). The data set can be described thus: hGALK1 biochemical activity assay (Kinase-Glo Plus, ATP depletion). The procedure, abridged: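 Turnover is measured as ATP depletion by Kinase-Glo Plus luminescence after a 1 h room-temperature reaction. Compounds span 11 concentrations, 57.4 μM–0.97 nM, in final 20 mM HEPES pH 8.0 with 5 mM MgCl2. The substrate solution held 35 μM ATP; the added solution held 5 nM human or mouse GALK1 and 100 μM galactose.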

A short description of a further data set: PAMPA permeability. To be noted: PAMPA; for Papp: Perm. (1 × 10^−6 cm/sec). For orientation: The PAMPA barrier holds no transporters, so it reflects passive diffusion.
Data set [2] is described as follows: rat microsomal stability (RLM). Conditions: microsomal stability half-life.
[3] abbreviates: Tables 2-15, 35 μM ATP, 100 μM galactose, 1 h, bracketed figure after some values is undefined and not reported, read-out: mGALK IC50.
[4] abbreviates: recombinant mouse GALK1, Kinase-Glo Plus ATP depletion, read-out: mGALK.
Setting [5] is: Tables 2-15, 35 μM ATP, 100 μM galactose, 1 h, bracketed figure after some values (e.g. −1.2) is undefined and not reported, read-out: hGALK IC50.
Setting [6] is: recombinant human GALK1, Kinase-Glo Plus ATP depletion, read-out: hGALK.

Where two headings read alike, the source gives them in different places.

The results in this text go back to patent US20230158025A1 (UNIVERSITY OF UTAH RESEARCH FOUNDATION, priority 2020, published 2023).

Chain of recombinant human GALK1 (P51570 whole entry): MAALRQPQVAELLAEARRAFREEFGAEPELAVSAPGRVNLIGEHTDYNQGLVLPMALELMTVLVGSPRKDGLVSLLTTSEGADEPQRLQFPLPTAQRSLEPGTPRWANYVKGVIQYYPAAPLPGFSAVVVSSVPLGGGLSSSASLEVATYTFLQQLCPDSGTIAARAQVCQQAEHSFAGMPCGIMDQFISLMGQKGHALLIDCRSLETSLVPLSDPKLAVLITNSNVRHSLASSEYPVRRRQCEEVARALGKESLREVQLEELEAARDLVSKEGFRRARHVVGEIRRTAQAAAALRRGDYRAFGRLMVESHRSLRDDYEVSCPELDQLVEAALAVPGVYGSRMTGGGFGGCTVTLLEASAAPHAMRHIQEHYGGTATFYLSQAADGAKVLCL

For `CC1=C(C(=O)Nc2ccc(CN3CCOCC3)cc2)C(c2ccccc2Cl)N=C(Nc2nc3ccccc3o2)N1` (stereo not drawn) [Compound 183, 2-(benzo[d]oxazol-2-ylamino)-4-(2-chlorophenyl)-6-methyl-N-(4-(morpholinomethyl)phenyl)-1,4-dihydropyrimidine-5-carboxamide], the “Sol.” value in data set [1] was less than 1 µg/mL. For the same molecule, the IC50 stood at 9.68 µM at recombinant mouse GALK1 (setting [3]), 9.68 µM at recombinant mouse GALK1 (setting [4]), 5.44 µM on recombinant human GALK1 (setting [5]) and 5.44 µM at recombinant human GALK1 (setting [6]). Besides, the “Perm. (1 × 10^−6 cm/sec)” value in “PAMPA permeability” is on record as 120.4 1 × 10^−6 cm/sec. Besides, in data set [2], the “Metab. Stabil. (m)” value is 22.3 m.
Turning to `CC1=C(C(=O)Nc2ccc(-n3cccn3)cc2)C(c2ccccc2Cl)N=C(Nc2nc3ccccc3o2)N1` (stereo not drawn) [Compound 184, N-(4-(1H-pyrazol-1-yl)phenyl)-2-(benzo[d]oxazol-2-ylamino)-4-(2-chlorophenyl)-6-methyl-1,4-dihydropyrimidine-5-carboxamide], the “Sol.” value in data set [1] was less than 1 µg/mL. The IC50 at recombinant mouse GALK1 (setting [3]) came out at 12.2 µM; on recombinant mouse GALK1 (setting [4]), 12.2 µM; on recombinant human GALK1 (setting [5]) it was 6.11 µM; at recombinant human GALK1 (setting [6]), 6.11 µM. In addition, the “Perm. (1 × 10^−6 cm/sec)” value in “PAMPA permeability” is <11.8 1 × 10^−6 cm/sec. Also, the “Metab. Stabil. (m)” value in data set [2] is given as 16.4271 m.
As for `COC(=O)c1cnc(NC(=O)C2=C(C)NC(Nc3nc4ccccc4o3)=NC2c2ccccc2Cl)s1` (stereo not drawn) [Compound 185, methyl 2-(2-(benzo[d]oxazol-2-ylamino)-4-(2-chlorophenyl)-6-methyl-1,4-dihydropyrimidine-5-carboxamido)thiazole-5-carboxylate], in data set [1], the “Sol.” value is less than 1 µg/mL. In addition, the IC50 at recombinant mouse GALK1 (setting [3]) worked out at 10.9 µM; on recombinant mouse GALK1 (setting [4]), 10.9 µM; at recombinant human GALK1 (setting [5]), 4.32 µM; on recombinant human GALK1 (setting [6]), 4.32 µM. In addition, the Papp in the data set “PAMPA permeability” was less than 7.6 ×10⁻⁶ cm/s. Besides, in data set [2], the “Metab. Stabil. (m)” value is on record as 15.91 m.
`COC(=O)c1csc(NC(=O)C2=C(C)NC(Nc3nc4ccccc4o3)=NC2c2ccccc2Cl)n1` (stereo not drawn) [Compound 186, methyl 2-(2-(benzo[d]oxazol-2-ylamino)-4-(2-chlorophenyl)-6-methyl-1,4-dihydropyrimidine-5-carboxamido)thiazole-4-carboxylate]: the “Sol.” value in data set [1] is less than 1 µg/mL. Moreover, the IC50 on recombinant mouse GALK1 (setting [3]) was 13.7 µM; at recombinant mouse GALK1 (setting [4]) it was 13.7 µM; on recombinant human GALK1 (setting [5]), 12.2 µM; on recombinant human GALK1 (setting [6]) it was 12.2 µM. The “Perm. (1 × 10^−6 cm/sec)” value in “PAMPA permeability” is listed as 65.6 1 × 10^−6 cm/sec. In data set [2], the “Metab. Stabil. (m)” value is on record as more than 30 m.
With `CC1=C(C(=O)Nc2nnc(-c3ccncc3)s2)C(c2ccccc2Cl)N=C(Nc2nc3ccccc3o2)N1` (stereo not drawn) [Compound 187, 2-(benzo[d]oxazol-2-ylamino)-4-(2-chlorophenyl)-6-methyl-N-(5-(pyridin-4-yl)-1,3,4-thiadiazol-2-yl)-1,4-dihydropyrimidine-5-carboxamide], in data set [1], the “Sol.” value was less than 1 µg/mL. For the same molecule, the IC50 on recombinant mouse GALK1 (setting [3]) worked out at 19.3 µM; on recombinant mouse GALK1 (setting [4]) it was 19.3 µM; at recombinant human GALK1 (setting [5]), 10.9 µM; at recombinant human GALK1 (setting [6]) it was 10.9 µM. Further, the “Perm. (1 × 10^−6 cm/sec)” value in “PAMPA permeability” is 6.2 1 × 10^−6 cm/sec. Further, the “Metab. Stabil. (m)” value in data set [2] is more than 30 m.
Regarding `CC1=C(C(=O)Nc2ccc(C#N)cc2)C(c2ccccc2Cl)N=C(Nc2nc3ccccc3o2)N1` (stereo not drawn) [Compound 189, 2-(benzo[d]oxazol-2-ylamino)-4-(2-chlorophenyl)-N-(4-cyanophenyl)-6-methyl-1,4-dihydropyrimidine-5-carboxamide], the “Sol.” value in data set [1] is less than 1 µg/mL. Moreover, the IC50 is 13.7 µM on recombinant mouse GALK1 (setting [3]), 13.7 µM on recombinant mouse GALK1 (setting [4]), 10.9 µM on recombinant human GALK1 (setting [5]) and 10.9 µM on recombinant human GALK1 (setting [6]). Further, the “Perm. (1 × 10^−6 cm/sec)” value in the data set “PAMPA permeability” is reported as <18.7 1 × 10^−6 cm/sec. Besides, in data set [2], the “Metab. Stabil. (m)” value was found to be 25.33 m.
In the case of `CC1=C(C(=O)Nc2ccc(N3CCNCC3)cc2)C(c2ccccc2Cl)N=C(Nc2nc3ccccc3o2)N1` (stereo not drawn) [Compound 190, 2-(benzo[d]oxazol-2-ylamino)-4-(2-chlorophenyl)-6-methyl-N-(4-(piperazin-1-yl)phenyl)-1,4-dihydropyrimidine-5-carboxamide], the “Sol.” value in data set [1] is 2.416 µg/mL. For the same molecule, the IC50 at recombinant mouse GALK1 (setting [3]) was 48.5 µM; at recombinant mouse GALK1 (setting [4]), 48.5 µM; at recombinant human GALK1 (setting [5]), 68.5 µM; on recombinant human GALK1 (setting [6]), 68.5 µM. Further, the Papp in “PAMPA permeability” was determined as 894 ×10⁻⁶ cm/s. Further, in data set [2], the “Metab. Stabil. (m)” value was found to be 8.634 m.
Regarding `CC1=C(C(=O)Nc2ncc(CO)s2)C(c2ccccc2Cl)N=C(Nc2nc3ccccc3o2)N1` (stereo not drawn) [Compound 193, 2-(benzo[d]oxazol-2-ylamino)-4-(2-chlorophenyl)-N-(5-(hydroxymethyl)thiazol-2-yl)-6-methyl-1,4-dihydropyrimidine-5-carboxamide], the “Sol.” value in data set [1] is less than 1 µg/mL. Also, the IC50 at recombinant mouse GALK1 (setting [3]) was found to be 19.3 µM; at recombinant mouse GALK1 (setting [4]) it was 19.3 µM; at recombinant human GALK1 (setting [5]), 12.2 µM; on recombinant human GALK1 (setting [6]), 12.2 µM. Further, the “Perm. (1 × 10^−6 cm/sec)” value in the data set “PAMPA permeability” is 161.4 1 × 10^−6 cm/sec. The “Metab. Stabil. (m)” value in data set [2] is listed as more than 30 m.
With `CC1=C(C(=O)Nc2cccc(C(=O)O)n2)C(c2ccccc2Cl)N=C(Nc2nc3ccccc3o2)N1` (stereo not drawn) [Compound 195, 6-(2-(benzo[d]oxazol-2-ylamino)-4-(2-chlorophenyl)-6-methyl-1,4-dihydropyrimidine-5-carboxamido)picolinic acid], the “Sol.” value in data set [1] is 60.0 µg/mL. For the same molecule, the IC50 at recombinant mouse GALK1 (setting [3]) worked out at 6.85 µM; at recombinant mouse GALK1 (setting [4]), 6.85 µM; at recombinant human GALK1 (setting [5]), 4.32 µM; on recombinant human GALK1 (setting [6]), 4.32 µM. In “PAMPA permeability”, the “Perm. (1 × 10^−6 cm/sec)” value is <1 1 × 10^−6 cm/sec. In data set [2], the “Metab. Stabil. (m)” value was more than 30 m.
For `COC(=O)c1ccnc(NC(=O)C2=C(C)NC(Nc3nc4ccccc4o3)=NC2c2ccccc2Cl)c1` (stereo not drawn) [Compound 196, methyl 2-(2-(benzo[d]oxazol-2-ylamino)-4-(2-chlorophenyl)-6-methyl-1,4-dihydropyrimidine-5-carboxamido)isonicotinate], in data set [1], the “Sol.” value was less than 1 µg/mL. In addition, the IC50 turned out to be 5.44 µM at recombinant mouse GALK1 (setting [3]), 5.44 µM at recombinant mouse GALK1 (setting [4]), 2.73 µM at recombinant human GALK1 (setting [5]) and 2.73 µM at recombinant human GALK1 (setting [6]). Also, the “Perm. (1 × 10^−6 cm/sec)” value in “PAMPA permeability” was 27.7 1 × 10^−6 cm/sec. The “Metab. Stabil. (m)” value in data set [2] is listed as 18.44 m.
For `COC(=O)c1cccc(NC(=O)C2=C(C)NC(Nc3nc4ccccc4o3)=NC2c2ccccc2Cl)n1` (stereo not drawn) [Compound 197], the “Sol.” value in data set [1] is less than 1 µg/mL. For the same molecule, the IC50 at recombinant mouse GALK1 (setting [3]) is 12.2 µM; on recombinant mouse GALK1 (setting [4]) it was 12.2 µM; at recombinant human GALK1 (setting [5]) it was 9.68 µM; on recombinant human GALK1 (setting [6]), 9.68 µM. For the same molecule, the “Perm. (1 × 10^−6 cm/sec)” value in “PAMPA permeability” is 18.9 1 × 10^−6 cm/sec. Besides, in data set [2], the “Metab. Stabil. (m)” value is recorded as more than 30 m.
For the molecule `CC1=C(C(=O)Nc2nc(CO)cs2)C(c2ccccc2Cl)N=C(Nc2nc3ccccc3o2)N1` (stereo not drawn) [Compound 198, 2-(benzo[d]oxazol-2-ylamino)-4-(2-chlorophenyl)-N-(4-(hydroxymethyl)thiazol-2-yl)-6-methyl-1,4-dihydropyrimidine-5-carboxamide], in data set [1], the “Sol.” value was less than 1 µg/mL. Also, the IC50 on recombinant mouse GALK1 (setting [3]) came out at 19.3 µM; on recombinant mouse GALK1 (setting [4]), 19.3 µM; on recombinant human GALK1 (setting [5]) it was 17.2 µM; at recombinant human GALK1 (setting [6]), 17.2 µM. Also, the “Perm. (1 × 10^−6 cm/sec)” value in the data set “PAMPA permeability” is 59.9 1 × 10^−6 cm/sec. For the same molecule, in data set [2], the “Metab. Stabil. (m)” value is reported as more than 30 m.
For `CC1=C(C(=O)Nc2ccnc(C(=O)O)c2)C(c2ccccc2Cl)N=C(Nc2nc3ccccc3o2)N1` (stereo not drawn) [Compound 203, 4-(2-(benzo[d]oxazol-2-ylamino)-4-(2-chlorophenyl)-6-methyl-1,4-dihydropyrimidine-5-carboxamido)picolinic acid], in data set [1], the “Sol.” value was more than 74 µg/mL. In addition, the IC50 at recombinant mouse GALK1 (setting [3]) turned out to be 3.06 µM; on recombinant mouse GALK1 (setting [4]), 3.06 µM; on recombinant human GALK1 (setting [6]), 3.43 µM. The “Perm. (1 × 10^−6 cm/sec)” value in “PAMPA permeability” is <1 1 × 10^−6 cm/sec. In addition, the “Metab. Stabil. (m)” value in data set [2] is listed as more than 30 m.
Take `COC(=O)c1cc(NC(=O)C2=C(C)NC(Nc3nc4ccccc4o3)=NC2c2ccccc2Cl)ccn1` (stereo not drawn) [Compound 204, methyl 4-(2-(benzo[d]oxazol-2-ylamino)-4-(2-chlorophenyl)-6-methyl-1,4-dihydropyrimidine-5-carboxamido)picolinate]: the “Sol.” value in data set [1] was less than 1 µg/mL. Also, the IC50 at recombinant mouse GALK1 (setting [3]) was found to be 10.9 µM; on recombinant mouse GALK1 (setting [4]), 10.9 µM; at recombinant human GALK1 (setting [5]), 7.69 µM; on recombinant human GALK1 (setting [6]) it was 7.69 µM. For the same molecule, in “PAMPA permeability”, the “Perm. (1 × 10^−6 cm/sec)” value is reported as 49.2 1 × 10^−6 cm/sec. Besides, the “Metab. Stabil. (m)” value in data set [2] was more than 30 m.
Take `COC(=O)c1ccnc(NC(=O)C2=C(C)NC(Nc3nc4ccccc4o3)=N[C@H]2c2ccccc2Cl)c1` [Compound 206, (R)-methyl 2-(2-(benzo[d]oxazol-2-ylamino)-4-(2-chlorophenyl)-6-methyl-1,4-dihydropyrimidine-5-carboxamido)isonicotinate]: in data set [1], the “Sol.” value was less than 1 µg/mL. The IC50 at recombinant mouse GALK1 (setting [4]) was determined as 6.85 µM; on recombinant human GALK1 (setting [6]) it was 3.43 µM. In addition, the “Perm. (1 × 10^−6 cm/sec)” value in the data set “PAMPA permeability” is reported as 306.7 1 × 10^−6 cm/sec. In addition, the “Metab. Stabil. (m)” value in data set [2] came out at 19.99 m.

Broadly, the Papp is the rate of passage across a membrane or cell layer, normalised by area and donor concentration. The low end stands for slow passage, the high end for fast passage.
